What follows are substances tested on CD8+ T cells (assay: In vitro T-cell priming with aAPCs loaded with peptide/MHC and anti-CD28, pMHC multimer readout (in vitro immunogenicity)). Conditions: HLA-A*02, healthy donors.
Type: cell-based, human
Procedure: In an aspect, the peptides are pre-screened for immunogenicity before being included in the warehouse. By way of example, and not limitation, the immunogenicity of the peptides included in the warehouse is determined by a method comprising in vitro T-cell priming through repeated stimulations of CD8+ T cells from healthy donors with artificial antigen presenting cells loaded with peptide/MHC complexes and anti-CD28 antibody.
In order to obtain information regarding the immunogenicity of the TUMAPs of the present invention, the inventors performed investigations using an in vitro T-cell priming assay based on repeated stimulations of CD8+ T cells with artificial antigen presenting cells (aAPCs) loaded with peptide/MHC complexes and anti-CD28 antibody.
In order to perform in vitro stimulations by artificial antigen presenting cells loaded with peptide-MHC complex (pMHC) and anti-CD28 antibody, the inventors first isolated CD8+ T cells from fresh HLA-A*02 leukapheresis products via positive selection using CD8 microbeads (Miltenyi Biotec, Bergisch-Gladbach, Germany) of healthy donors obtained from the University clinics Mannheim, Germany, after informed consent.
PBMCs and isolated CD8+ lymphocytes were incubated in T-cell medium (TCM) until use consisting of RPMI-Glutamax (Invitrogen, Karlsruhe, Germany) supplemented with 10% heat inactivated human AB serum (PAN-Biotech, Aidenbach, Germany), 100 U/ml Penicillin/100 μg/ml Streptomycin (Cambrex, Cologne, Germany), 1 mM sodium pyruvate (CC Pro, Oberdorla, Germany), 20 μg/ml Gentamycin (Cambrex). 2.5 ng/ml IL-7 (PromoCell, Heidelberg, Germany) and 10 U/ml IL-2 (Novartis Pharma, Nürnberg, Germany) were also added to the TCM at this step.
Generation of pMHC/anti-CD28 coated beads, T-cell stimulations and readout was performed in a highly defined in vitro system using four different pMHC molecules per stimulation condition and 8 different pMHC molecules per readout condition.
The purified co-stimulatory mouse IgG2a anti human CD28 Ab 9.3 (Jung et al., 1987) was chemically biotinylated using Sulfo-N-hydroxysuccinimidobiotin as recommended by the manufacturer (Perbio, Bonn, Germany). Beads used were 5.6 μm diameter streptavidin coated polystyrene particles (Bangs Laboratories, Illinois, USA).
pMHC used for positive and negative control stimulations were A*0201/MLA-001 (peptide […] (SEQ ID NO. 664) from modified Melan-A/MART-1) and A*0201/DDX5-001 ([…] from DDX5, SEQ ID NO. 665), respectively.
800.000 beads/200 μl were coated in 96-well plates in the presence of 4×12.5 ng different biotin-pMHC, washed and 600 ng biotin anti-CD28 were added subsequently in a volume of 200 μl. Stimulations were initiated in 96-well plates by co-incubating […] CD8+ T cells with 2×10^5 washed coated beads in 200 μl TCM supplemented with 5 ng/ml IL-12 (PromoCell) for 3 days at 37° C. Half of the medium was then exchanged by fresh TCM supplemented with 80 U/ml IL-2 and incubating was continued for 4 days at 37° C. This stimulation cycle was performed for a total of three times. For the pMHC multimer readout using 8 different pMHC molecules per condition, a two-dimensional combinatorial coding approach was used as previously described (Andersen et al., 2012) with minor modifications encompassing coupling to 5 different fluorochromes. Finally, multimeric analyses were performed by staining the cells with Live/dead near IR dye (Invitrogen, Karlsruhe, Germany), CD8-FITC antibody clone SK1 (BD, Heidelberg, Germany) and fluorescent pMHC multimers. For analysis, a BD LSRII SORP cytometer equipped with appropriate lasers and filters was used. Peptide specific cells were calculated as percentage of total CD8+ cells. Evaluation of multimeric analysis was done using the FlowJo software (Tree Star, Oregon, USA). In vitro priming of specific multimer+ CD8+ lymphocytes was detected by comparing to negative control stimulations. […]

Q: Which results are given for “283 (ALYIGDGYVIHLA; listed as Homo sapiens) [compound 283]”?
A: donors (percentage of positive donors): +++ (50%-69% = +++); wells (percentage of positive wells): + (<20% = +)

Q: What does the source list for “648 (LLWGNAIFL; listed as Homo sapiens) [compound 648]”?
A: donors (percentage of positive donors): +++ (50%-69% = +++); wells (percentage of positive wells): ++ (20%-49% = ++)

Q: What does the source list for “659 (ILFPDIIARA; listed as Homo sapiens) [compound 659]”?
A: donors (percentage of positive donors): +++ (50%-69% = +++); wells (percentage of positive wells): + (<20% = +)

Q: For “652 (TLWYRAPEV; listed as Homo sapiens) [compound 652]”, which “donors (percentage of positive donors)” value is on record?
A: ++++ (> = 70% = ++++)

Q: And the “wells (percentage of positive wells)” value?
A: +++ (50%-69% = +++)

Q: Which results are given for “663 (KIQEMQHFL; listed as Homo sapiens) [compound 663]”?
A: donors (percentage of positive donors): +++ (50%-69% = +++); wells (percentage of positive wells): + (<20% = +)

Q: With “662 (KIQEILTQV; listed as Homo sapiens) [compound 662]” as the substance, how does the “donors (percentage of positive donors)” value read?
A: +++ (50%-69% = +++)

Q: What about the “wells (percentage of positive wells)” value of the same substance?
A: + (<20% = +)

These substances were tested against HLA-A*02:01 (Homo sapiens, UniProt P04439, D140Y/D185E/D98H/E176V/E277Q/G131W/G231S/I119V/I121R/I166T/I218V/L300P/L318F/N151K/N90K/P208A/P217A/Q86G/Q94H/R138H/R169H/T345S) (assay: MHC binding assay: UV-ligand exchange with beta2m ELISA (peptide exchange yield)). Conditions: binding to HLA-A*02:01.
Outline: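 Peptide-MHC complexes formed by UV-ligand exchange, a UV-cleavable peptide being replaced by the candidate peptide. Exchange products diluted 100-fold, captured on streptavidin-coated plates for 1h at 37° C, then detected with 2 ug/ml HRP anti-β2m (1h, 37° C) and TMB, absorbance 450 nm; value is exchange yield.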

Q: With “283 (ALYIGDGYVIHLA; listed as Homo sapiens) [compound 283]” as the substance, how does the “Peptide exchange (MHC class I binding score, peptide exchange yield)” value read?
A: “+++” (≥50 = +++)

Source: patent publication US10464978B2, “Peptides and combination of peptides for use in immunotherapy against ovarian cancer and other cancers” (immatics biotechnologies GmbH, priority 2015, dated 2019)
